This is an account of results in US6846492B2, “Use of phenylethylamine derivatives for the antimicrobial treatment of surfaces” (Ciba Specialty Chemicals Corporation, priority 2000, dated 2005).

What all share (format): cell-based
In test [1] the test system is Actinomyces viscosum DSM 43329. The test is described as follows: MIC determination in microtiter plates, Actinomyces viscosum. The settings on record: DSM43329, 48 h, read-out: MIC [ppm] Actinomyces viscosum DSM 43329. As to the method:
(§1) Determination of the Minimum Inhibitory Concentration (MIC Value) in Microtiter Plates
(§2) Casein/soybean flour peptone bouillon for the preparation of pre-cultures of the test bacteria and yeast.
(§3) Mycological slant agar for the pre-culture of moulds
(§4) The test substances are pre-dissolved in dimethyl sulfoxide (DMSO) and tested in a dilution series of 1:2.
(§5) Bacteria and yeast are cultured overnight in CASO bouillon, the mould is cultured overnight on mycological slant agar, and washed off with 10 ml of 0.85% sodium chloride solution (+0.1% TritonX-100).
(§6) All the test organisms are adjusted to an organism count of 1−5×10^6 CFU/ml using 0.85% sodium chloride solution.
(§7) The test substances are pre-pipetted into microtiter plates in an amount of 8 μl per well.
(§8) Pre-diluted organism suspensions are diluted 1:100 in CASO bouillon (bacteria and yeast) or Sabouraud 2% glucose bouillon (mould) and are added in an amount of 192 μl per well to the test substances.
(§9) The test batches are incubated for 48 hours at 37° C. (bacteria and yeast) or for 5 days at 28° C. (mould).
(§10) After incubation, the growth is evaluated by reference to the turbidity of the test batches (optical density) at 620 nm in a microplate reader.
(§11) One microtiter plate is used for each test organism and substance concentration. All the substances are tested in duplicate.

In test [2] the test system is Streptococcus sobrinus DSM 20742. The experiment in a line: MIC determination in microtiter plates, Streptococcus sobrinus. The settings on record: DSM20742, 48 h, read-out: MIC [ppm] Streptococcus sobrinus DSM 20742. As to the method: as §1, §2, §3, §4, §5, §6, §7, §8, §9, §10, §11
For test [3], the system named is Selenomonas artemidis ATCC 43528. The test is described as follows: MIC determination in microtiter plates, Selenomonas artemidis. The settings on record: Centipeda artemidis, ATCC43528; Table 2c; 48 hours at 37° C.; read-out: MIC [ppm] Selenomonas artemidis ATCC 43528. How it is done:
as §1, §2, §3, §4, §5, §6, §7, §8, §9, §10, §11

In test [4] the test system is Trichophyton mentagrophytes ATCC 9533. The experiment in a line: MIC determination in microtiter plates, Trichophyton mentagrophytes. The settings on record: ATCC9533, 120 h, Table 2c, 5 days at 28° C., read-out: MIC [ppm] Trichophyton mentagrophytes ATCC 9533. How it is done: as §1, §2, §3, §4, §5, §6, §7, §8, §9, §10, §11
In test [5] the test system is Propionibacterium acnes ATCC11829. The experiment in a line: MIC determination in microtiter plates, Propionibacterium acnes. The settings on record: Cutibacterium acnes, ATCC11829, 48 h, read-out: MIC [ppm] Propionibacterium acnes ATCC11829. As to the method: as §1, §2, §3, §4, §5, §6, §7, §8, §9, §10, §11
The test system of test [6] is Staphylococcus epidermidis ATCC 12228. The test is described as follows: MIC determination in microtiter plates, Staphylococcus epidermidis. The settings on record: ATCC12228, 48 h, read-out: MIC [ppm] Staphylococcus epidermidis ATCC 12228. How it is done: as §1, §2, §3, §4, §5, §6, §7, §8, §9, §10, §11
The subject of test [7] is Staphylococcus hominis DMS 20328 (= SH). The experiment in a line: MIC determination in microtiter plates, Staphylococcus hominis. The settings on record: DSM20328, 48 h, read-out: MIC [ppm] Staphylococcus hominis DSM 20328. An outline of the steps:
(§12)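 Compounds were pre-dissolved in DMSO and tested as a 1:2 dilution series against organisms adjusted to 1−5×10^6 CFU/ml, then diluted 1:100 in CASO broth (bacteria) or Sabouraud 2% glucose broth (A. niger). Incubation was 48 h at 37 °C (bacteria) or 5 days at 28 °C (mould). Growth was judged by turbidity at 620 nm, in duplicate.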

Test [8] relates to Candida albicans ATCC 10231 (= CA). The experiment in a line: MIC determination in microtiter plates, Candida albicans. The settings on record: ATCC10231, 48 h, read-out: MIC [ppm] Candida albicans ATC 10231. An outline of the steps: as §12
Test [9] has as its system Epidermophyton floccosum DSM 10709. The experiment in a line: MIC determination in microtiter plates, Epidermophyton floccosum. The settings on record: DSM10709, 120 h, read-out: MIC [ppm] Epidermophyton floccosum DSM 10709. How it is done:
as §1, §2, §3, §4, §5, §6, §7, §8, §9, §10, §11

In test [10] the test system is Enterococcus hirae ATCC 10541. The experiment in a line: MIC determination in microtiter plates, Enterococcus hirae. Particulars: ATCC10541, 48 h, read-out: MIC [ppm] Enterococcus hirae ATCC 10541. How it is done:
as §1, §2, §3, §4, §5, §6, §7, §8, §9, §10, §11

Test [11] has as its system Porphyromonas gingivalis DSM 20709. The experiment in a line: MIC determination in microtiter plates, Porphyromonas gingivalis. The settings on record: DSM20709, 48 h, read-out: MIC [ppm] Porphyromonas gingivalis DSM 20709. As to the method:
as §1, §2, §3, §4, §5, §6, §7, §8, §9, §10, §11

Test [12] deals with Trichophyton rubrum DSM 4167. The test is described as follows: MIC determination in microtiter plates, Trichophyton rubrum. The settings on record: DSM4167, 120 h, read-out: MIC [ppm] Trichophyton rubrum DSM 4167. How it is done:
as §1, §2, §3, §4, §5, §6, §7, §8, §9, §10, §11

Test [13] deals with Escherichia coli NCTC 8196 (= EC). The experiment in a line: MIC determination in microtiter plates, Escherichia coli. The settings on record: NCTC8196, Table 2c, 48 hours at 37° C., read-out: MIC [ppm] Escherichia coli NCTC 8196. The method in brief:
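Test substances in DMSO, 1:2 dilution series; organisms adjusted to 1−5×10^6 CFU/ml, then diluted 1:100 in CASO bouillon (bacteria) or Sabouraud 2% glucose bouillon (mould). Bacteria incubated 48 h at 37° C., mould 5 days at 28° C.; growth read as turbidity at 620 nm, in duplicate.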

In test [14] the test system is Staphylococcus aureus ATCC 9144. The experiment in a line: MIC determination in microtiter plates, Staphylococcus aureus. Particulars: ATCC9144, 48 h, read-out: MIC [ppm] Staphylococcus aureus ATCC 9144. As to the method: as §1, §2, §3, §4, §5, §6, §7, §8, §9, §10, §11
Test [15] has as its system Corynebacterium xerosis ATCC 373. The test is described as follows: MIC determination in microtiter plates, Corynebacterium xerosis. Particulars: ATCC373, 48 h, read-out: MIC [ppm] Corynebacterium xerosis ATCC 373. How it is done: as §1, §2, §3, §4, §5, §6, §7, §8, §9, §10, §11
The subject of test [16] is Streptococcus mutans ATCC 25175. The experiment in a line: MIC determination in microtiter plates, Streptococcus mutans. Particulars: ATCC25175, 48 h, read-out: MIC [ppm] Streptococcus mutans ATCC 25175. As to the method: as §1, §2, §3, §4, §5, §6, §7, §8, §9, §10, §11

Converted amounts (≈) assume the structure as drawn.

Usually MIC stands for the lowest concentration found to suppress growth. Consider `CCCCCCOc1ccc(CCN)cc1OCCCCCC` [Compound 102, 1-Amino-2-(3,4-dihexyloxyphenyl)ethane], for which the MIC in [1] is 13 µg/mL (≈ 40.4 µM); in test [2] it was 6 µg/mL (≈ 18.7 µM); in test [3] it was 25 µg/mL (≈ 77.8 µM); in test [4] it was 25 µg/mL (≈ 77.8 µM); in test [5], 13 µg/mL (≈ 40.4 µM); in [6], 6 µg/mL (≈ 18.7 µM). The minimum inhibitory concentration (MIC) in test [7] is 4 µg/mL (≈ 12.4 µM); in test [8], 4 µg/mL (≈ 12.4 µM); in test [9], 6 µg/mL (≈ 18.7 µM); in [10] it was 13 µg/mL (≈ 40.4 µM); in test [11] it was 2 µg/mL (≈ 6.22 µM); in test [12], 25 µg/mL (≈ 77.8 µM). Further, the MIC was found to be 4 µg/mL (≈ 12.4 µM) in test [13], 13 µg/mL (≈ 40.4 µM) in test [14], 6 µg/mL (≈ 18.7 µM) in test [15] and 3 µg/mL (≈ 9.33 µM) in [16].
